The values below are quoted from earlier work in patent US20090252834A1, “Compositions comprising glucose anti-metabolites” (priority 2004, published 2009).

The test system of data set [1] is rodents. Conditions: long-term; cited from earlier work.
For data set [2] the following is noted: high doses; cited from earlier work.
For data set [3] the following is noted: in contrast with 2-deoxy-D-glucose; cited from earlier work.
Data set [4] relates to rats. Conditions: cited from earlier work.
Data set [5] relates to isolated rat hepatocytes. The conditions noted are these: cited from earlier work.
For data set [6] the following is noted: injected into a rat; cited from earlier work.
Data set [7] has as its system rats. The conditions noted are these: by injection, in rats; cited from earlier work.

For `O=CC[C@@H](O)[C@H](O)[C@H](O)CO` [2-deoxy-D-glucose], the “metabolic hallmarks of caloric restriction (reduced body temperature, weight loss, lower fasting insulin levels)” value in data set [1] is reported as “can mimic some of the major metabolic hallmarks of caloric restriction”. Further, the “side effects and toxicity” value in data set [2] was “significant untoward side effects and toxicity have been observed”.
Take `CO[C@@H]([C@H](O)[C@H](O)CO)[C@@H](O)C=O` [3-O-methylglucose]: the “metabolism of the glucose analog” value in data set [3] was “not metabolized”. Moreover, the “responses to administration compared with 2-deoxyglucose” value in data set [4] is recorded as “about seven times weaker”.
`OC[C@H]1O[C@H](CO)[C@@H](O)[C@@H]1O` [2,5-Anhydro-D-mannitol, 2,5-anhydro-D-mannitol]: the “glucose formation and utilization” value in data set [5] is “interfere in glucose formation and utilization”.
Broadly, the LD50 is the dose at which mortality reaches 50%. On to `O=C[C@H](O)[C@@H](O)[C@H](O)[C@H](S)CO` [5-Thioglucose, 5-thio-D-glucose], for which the “5-thioglucose excreted unchanged in urine” value in data set [6] was 97%. Further, the LD50 in data set [7] was 14000 mg/kg.
